This is an account of results in the supplement of paper PMC10307832.

Assay in all cases: relative viability (nuclei count vs DMSO), 5 days (fraction); higher = more cells survive
Compound in the assay “Metformin + Palbociclib”: CN(C)C(=N)NC(=N)N [Metformin] + CC(=O)c1c(C)c2cnc(Nc3ccc(N4CCNCC4)cn3)nc2n(C2CCCC2)c1=O [Palbociclib] (partner 0.5 µM)
Put shortly:
(§1)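 Relative viability equals treated-well nuclei counts divided by vehicle-well nuclei counts. Counts came from 4× images of lung cancer cell lines grown in 1536-well plates for 5 days after pin-tool dosing on the day after seeding. Dosing used one drug alone or a fixed anchor-drug dose plus five library-drug doses (not always all listed) in √10 steps, and values are medians of duplicate plates.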

Compound in the assay “Metformin + Alpelisib”: CN(C)C(=N)NC(=N)N [Metformin] + Cc1nc(NC(=O)N2CCC[C@H]2C(N)=O)sc1-c1ccnc(C(C)(C)C(F)(F)F)c1 [Alpelisib] (partner 2 µM)
The gist of the method:
as §1

Compound in the assay “Apatinib + Pictilisib”: N#CC1(c2ccc(NC(=O)c3cccnc3NCc3ccncc3)cc2)CCCC1 [Apatinib] + CS(=O)(=O)N1CCN(Cc2cc3nc(-c4cccc5[nH]ncc45)nc(N4CCOCC4)c3s2)CC1 [Pictilisib] (partner 1 µM)
Put shortly: as §1

Compound in the assay “Apatinib + Pemetrexed”: N#CC1(c2ccc(NC(=O)c3cccnc3NCc3ccncc3)cc2)CCCC1 [Apatinib] + Nc1nc2[nH]cc(CCc3ccc(C(=O)N[C@@H](CCC(=O)O)C(=O)O)cc3)c2c(=O)[nH]1 [Pemetrexed] (partner 0.2 µM)
The gist of the method:
as §1

Consider NCI-H661, for which the relative viability is 0.382 in the assay with Metformin + Palbociclib (first compound 10 µM); 0.391 in the assay with Metformin + Palbociclib (first compound 31.62 µM); 0.371 with Metformin + Palbociclib (first compound 100 µM); 0.37 with Metformin + Palbociclib (first compound 316.23 µM); 0.365 in the assay with Metformin + Palbociclib (first compound 1000 µM); 0.745 with Metformin + Alpelisib (first compound 10 µM). Further, the relative viability in the assay with Metformin + Alpelisib (first compound 31.62 µM) amounted to 0.404; with Metformin + Alpelisib (first compound 100 µM), 0.711; with Metformin + Alpelisib (first compound 316.23 µM), 0.757; with Metformin + Alpelisib (first compound 1000 µM), 0.774; in the assay with Apatinib + Pictilisib (first compound 0.08 µM) it was 0.273; with Apatinib + Pictilisib (first compound 0.253 µM), 0.393. The relative viability with Apatinib + Pictilisib (first compound 0.8 µM) is 0.461; with Apatinib + Pictilisib (first compound 2.53 µM), 0.381; with Apatinib + Pictilisib (first compound 8 µM) it was 0.367; with Apatinib + Pemetrexed (first compound 0.08 µM) it was 0.933; with Apatinib + Pemetrexed (first compound 0.253 µM), 0.853; with Apatinib + Pemetrexed (first compound 0.8 µM), 0.911. Besides, the relative viability amounted to 0.917 in the assay with Apatinib + Pemetrexed (first compound 2.53 µM) and 0.892 with Apatinib + Pemetrexed (first compound 8 µM).

Regarding NCI-H1793, the relative viability came to 0.297 with Metformin + Palbociclib (first compound 10 µM); 0.39 in the assay with Metformin + Palbociclib (first compound 31.62 µM); 0.387 with Metformin + Palbociclib (first compound 100 µM); 0.353 with Metformin + Palbociclib (first compound 316.23 µM); 0.361 in the assay with Metformin + Palbociclib (first compound 1000 µM); 1.17 with Metformin + Alpelisib (first compound 10 µM). In addition, the relative viability was 1.03 with Metformin + Alpelisib (first compound 31.62 µM); 0.953 with Metformin + Alpelisib (first compound 100 µM); 0.761 with Metformin + Alpelisib (first compound 316.23 µM); 0.919 with Metformin + Alpelisib (first compound 1000 µM); 0.277 in the assay with Apatinib + Pictilisib (first compound 0.08 µM); 0.23 with Apatinib + Pictilisib (first compound 0.253 µM). Also, the relative viability in the assay with Apatinib + Pictilisib (first compound 0.8 µM) was found to be 0.391; in the assay with Apatinib + Pictilisib (first compound 2.53 µM) it was 0.256; with Apatinib + Pictilisib (first compound 8 µM) it was 0.342; in the assay with Apatinib + Pemetrexed (first compound 0.08 µM), 1.1; with Apatinib + Pemetrexed (first compound 0.253 µM), 0.932; with Apatinib + Pemetrexed (first compound 0.8 µM) it was 0.871. The values for the relative viability with Apatinib + Pemetrexed (first compound 2.53 µM) and in the assay with Apatinib + Pemetrexed (first compound 8 µM) were 0.726 and 0.633, respectively.

NCI-H358: the relative viability with Metformin + Palbociclib (first compound 10 µM) was 0.114; with Metformin + Palbociclib (first compound 31.62 µM) it was 0.125; with Metformin + Palbociclib (first compound 100 µM), 0.122; with Metformin + Palbociclib (first compound 316.23 µM), 0.138; in the assay with Metformin + Palbociclib (first compound 1000 µM) it was 0.141; with Metformin + Alpelisib (first compound 10 µM), 1.1. The relative viability with Metformin + Alpelisib (first compound 31.62 µM) came out at 0.911; in the assay with Metformin + Alpelisib (first compound 100 µM), 1.07; with Metformin + Alpelisib (first compound 316.23 µM), 0.915; with Metformin + Alpelisib (first compound 1000 µM), 1.25; with Apatinib + Pictilisib (first compound 0.08 µM), 0.282; with Apatinib + Pictilisib (first compound 0.253 µM), 0.241. The relative viability stood at 0.283 with Apatinib + Pictilisib (first compound 0.8 µM); 0.298 in the assay with Apatinib + Pictilisib (first compound 2.53 µM); 0.301 with Apatinib + Pictilisib (first compound 8 µM); 0.173 with Apatinib + Pemetrexed (first compound 0.08 µM); 0.165 with Apatinib + Pemetrexed (first compound 0.253 µM); 0.233 in the assay with Apatinib + Pemetrexed (first compound 0.8 µM). The relative viability is 0.163 with Apatinib + Pemetrexed (first compound 2.53 µM) and 0.128 with Apatinib + Pemetrexed (first compound 8 µM).

In the case of LCLC-97TM1, the relative viability is 0.239 with Metformin + Palbociclib (first compound 31.62 µM); 0.321 in the assay with Metformin + Palbociclib (first compound 100 µM); 0.209 with Metformin + Palbociclib (first compound 316.23 µM); 0.21 with Metformin + Palbociclib (first compound 1000 µM); 0.285 with Metformin + Alpelisib (first compound 10 µM); 0.284 in the assay with Metformin + Alpelisib (first compound 31.62 µM). Besides, the relative viability with Metformin + Alpelisib (first compound 100 µM) was 0.339; with Metformin + Alpelisib (first compound 316.23 µM), 0.252; with Metformin + Alpelisib (first compound 1000 µM), 0.346; with Apatinib + Pictilisib (first compound 0.08 µM), 0.221; in the assay with Apatinib + Pictilisib (first compound 0.253 µM), 0.147; in the assay with Apatinib + Pictilisib (first compound 0.8 µM), 0.216. Also, the relative viability with Apatinib + Pictilisib (first compound 2.53 µM) came out at 0.316; in the assay with Apatinib + Pictilisib (first compound 8 µM), 0.143; in the assay with Apatinib + Pemetrexed (first compound 0.08 µM), 0.179; in the assay with Apatinib + Pemetrexed (first compound 0.253 µM), 0.139; in the assay with Apatinib + Pemetrexed (first compound 0.8 µM) it was 0.161; with Apatinib + Pemetrexed (first compound 2.53 µM), 0.141. Further, the relative viability with Apatinib + Pemetrexed (first compound 8 µM) worked out at 0.146.

NCI-H1944: the relative viability in the assay with Metformin + Palbociclib (first compound 10 µM) amounted to 0.386; with Metformin + Palbociclib (first compound 31.62 µM), 0.44; in the assay with Metformin + Palbociclib (first compound 100 µM) it was 0.404; with Metformin + Palbociclib (first compound 316.23 µM), 0.344; in the assay with Metformin + Palbociclib (first compound 1000 µM) it was 0.404; with Metformin + Alpelisib (first compound 10 µM), 0.936. Besides, the relative viability with Metformin + Alpelisib (first compound 31.62 µM) came to 1.01; with Metformin + Alpelisib (first compound 100 µM) it was 1.06; with Metformin + Alpelisib (first compound 316.23 µM) it was 0.886; with Metformin + Alpelisib (first compound 1000 µM), 0.973; in the assay with Apatinib + Pictilisib (first compound 0.08 µM) it was 0.344; in the assay with Apatinib + Pictilisib (first compound 0.253 µM), 0.345. The relative viability in the assay with Apatinib + Pictilisib (first compound 0.8 µM) worked out at 0.306; with Apatinib + Pictilisib (first compound 2.53 µM), 0.282; with Apatinib + Pictilisib (first compound 8 µM), 0.303; with Apatinib + Pemetrexed (first compound 0.08 µM) it was 0.687; with Apatinib + Pemetrexed (first compound 0.253 µM), 0.562; in the assay with Apatinib + Pemetrexed (first compound 0.8 µM) it was 0.501. Also, the relative viability with Apatinib + Pemetrexed (first compound 2.53 µM) came out at 0.456; with Apatinib + Pemetrexed (first compound 8 µM), 0.51.

Take 201T: the relative viability in the assay with Metformin + Palbociclib (first compound 31.62 µM) was determined as 0.376; with Metformin + Palbociclib (first compound 100 µM), 0.397; with Metformin + Palbociclib (first compound 316.23 µM), 0.329; in the assay with Metformin + Palbociclib (first compound 1000 µM), 0.382; with Metformin + Alpelisib (first compound 31.62 µM), 0.987; with Metformin + Alpelisib (first compound 100 µM), 0.989. The relative viability with Metformin + Alpelisib (first compound 316.23 µM) worked out at 0.955; in the assay with Metformin + Alpelisib (first compound 1000 µM) it was 0.985; in the assay with Apatinib + Pictilisib (first compound 0.08 µM) it was 0.748; in the assay with Apatinib + Pictilisib (first compound 0.253 µM), 0.643; with Apatinib + Pictilisib (first compound 0.8 µM), 0.662; with Apatinib + Pictilisib (first compound 2.53 µM) it was 0.604. Besides, the relative viability came to 0.663 with Apatinib + Pictilisib (first compound 8 µM); 0.325 in the assay with Apatinib + Pemetrexed (first compound 0.08 µM); 0.37 with Apatinib + Pemetrexed (first compound 0.253 µM); 0.297 with Apatinib + Pemetrexed (first compound 0.8 µM); 0.334 with Apatinib + Pemetrexed (first compound 2.53 µM); 0.316 with Apatinib + Pemetrexed (first compound 8 µM).

Regarding CAL-12T, the relative viability with Metformin + Palbociclib (first compound 10 µM) was 0.579; in the assay with Metformin + Palbociclib (first compound 31.62 µM), 0.53; in the assay with Metformin + Palbociclib (first compound 100 µM), 0.488; in the assay with Metformin + Palbociclib (first compound 316.23 µM) it was 0.384; in the assay with Metformin + Palbociclib (first compound 1000 µM), 0.423; with Metformin + Alpelisib (first compound 31.62 µM), 1.21. The relative viability with Metformin + Alpelisib (first compound 100 µM) is 1.08; with Metformin + Alpelisib (first compound 316.23 µM) it was 0.812; in the assay with Metformin + Alpelisib (first compound 1000 µM), 0.907; with Apatinib + Pictilisib (first compound 0.08 µM), 0.304; with Apatinib + Pictilisib (first compound 0.253 µM) it was 0.352; in the assay with Apatinib + Pictilisib (first compound 0.8 µM) it was 0.393. Moreover, the relative viability with Apatinib + Pictilisib (first compound 2.53 µM) stood at 0.484; with Apatinib + Pictilisib (first compound 8 µM), 0.353; with Apatinib + Pemetrexed (first compound 0.08 µM) it was 1.38; in the assay with Apatinib + Pemetrexed (first compound 0.253 µM), 1.25; with Apatinib + Pemetrexed (first compound 0.8 µM) it was 1.1; in the assay with Apatinib + Pemetrexed (first compound 2.53 µM), 0.897. Also, the relative viability with Apatinib + Pemetrexed (first compound 8 µM) was 0.917.
